Laboratory results taken from ChEMBL document CHEMBL4651402, “Screening of ~5500 FDA-approved drugs and clinical candidates for anti-SARS-CoV-2 activity” (2021).

System: SARS-CoV-2
Test: microbe, parasite or virus in culture
Details: Severe acute respiratory syndrome coronavirus 2, Vero C1008, 48 h

SMILES	IC50 [µM]	IC50 (read-out: pIC50 (converted)) [µM]
CC1CCc2cc(F)cc3c(=O)c(C(=O)O)cn1c23 (stereo unspecified) [FLUMEQUINE]	> 20	> 20
CN(C)[C@@H]1C(O)=C(C(N)=O)C(=O)[C@@]2(O)C(O)=C3C(=O)c4c(O)cccc4[C@@](C)(O)[C@H]3C[C@@H]12 [TETRACYCLINE]	> 20	> 20
Cc1c(NC(=O)OC[C@@H]2COCCN2)cn2ncnc(Nc3ccc4c(cnn4Cc4cccc(F)c4)c3)c12 [AC-480]	> 20	> 20
COc1ccccc1OCC(O)CN1CCN(CC(=O)Nc2c(C)cccc2C)CC1 (stereo unspecified) [RANOLAZINE]	> 20	> 20
CC1Cc2ccccc2N1NC(=O)c1ccc(Cl)c(S(N)(=O)=O)c1 (stereo unspecified) [INDAPAMIDE]	> 20	> 20
O=C(O)c1ccc2c(c1)OCO2 [PIPERONYLIC ACID]	> 20	> 20
O=C1N[11C](=O)C(c2ccccc2)(c2ccccc2)N1	> 20	> 20
CC(=O)N(c1onc(C)c1C)S(=O)(=O)c1ccc(N)cc1 [SULFISOXAZOLE ACETYL]	> 20	> 20
Cc1ccc(O)c([C@H](CCN(C(C)C)C(C)C)c2ccccc2)c1 [TOLTERODINE]	> 20	> 20
Nc1ccc(S(=O)(=O)O)cc1	> 20	> 20
Cc1onc(-c2ccccc2Cl)c1C(=O)N[C@@H]1C(=O)N2[C@@H]1SC(C)(C)[C@@H]2C(=O)O [CLOXACILLIN]	> 20	> 20
Cc1cn(-c2cc(NC(=O)c3ccc(C)c(Nc4nccc(-c5cccnc5)n4)c3)cc(C(F)(F)F)c2)cn1 [NILOTINIB]	> 20	> 20
CN(C)CCCN1c2ccccc2CCc2ccccc21 [IMIPRAMINE]	> 20	> 20
Cc1ccc(-n2nc(C(C)(C)C)cc2NC(=O)Nc2ccc(OCCN3CCOCC3)c3ccccc23)cc1 [DORAMAPIMOD]	> 20	> 20
Cc1ccc(Cc2cc3c(=O)n([C@H]4CCCC[C@@H]4O)cnc3c3ccccc23)cn1 [MK-7622]	> 20	> 20
CCN(CC)C(=O)C1CN2CCc3cc(OC)c(OC)cc3C2CC1OC(C)=O (stereo unspecified) [BENZQUINAMIDE]	> 20	> 20
C#CCN(C)Cc1ccccc1 [PARGYLINE]	> 20	> 20
COc1cc2c(cc1-c1cc3cc4ccoc4cc3oc1=O)OCO2 [PACHYRRIZINE]	> 20	> 20
c1ccc2c(c1)CCCC2C1=NCCN1 (stereo unspecified) [TETRAHYDROZOLINE]	> 20	> 20

SMILES	IC50 [µM]	IC50 (read-out: pIC50 (converted)) [µM]
CN(C)C(=O)Oc1ccc[n+](C)c1 [PYRIDOSTIGMINE]	> 20	> 20
O=C(Nc1ccc(OC(F)(F)F)cc1)c1sccc1NCc1ccnc2ccccc12 [OSI-930]	> 20	> 20
CC(C)NCC(O)c1ccc(O)c(O)c1 (stereo unspecified) [ISOPROTERENOL]	> 20	> 20
CC(C)(O)c1ccn2c(-c3ccc(F)c(-c4ccc(F)cc4C#N)c3)cnc2c1F	> 20	> 20
CC(C)NCC(O)COc1ccc(CCOCC2CC2)cc1 (stereo unspecified) [BETAXOLOL]	> 20	> 20
CCOc1cc(N)c(Cl)cc1C(=O)NCC1CN(Cc2ccc(F)cc2)CCO1 (stereo unspecified) [MOSAPRIDE]	> 20	> 20
C[C@@H](N)C(=O)N[C@@H](Cc1ccccc1)C(=O)O	> 20	> 20
Cc1noc(-c2ccc(-c3ccc(C4(C(=O)O)CC4)cc3)cc2)c1NC(=O)O[C@@H](C)c1ccccc1	> 20	> 20
C#C[C@]1(O)CC[C@H]2[C@@H]3CCC4=Cc5oncc5C[C@]4(C)[C@H]3CC[C@@]21C [DANAZOL]	> 20	> 20
COc1cc(Cc2cnc(N)nc2N)cc(OC)c1OC [TRIMETHOPRIM]	> 20	> 20
O=C(O)/C=C/c1ccc(Cn2ccnc2)cc1 [OZAGREL]	> 20	> 20
O=C(O)c1ccc2[nH]nnc2c1	> 20	> 20
CCc1nc2c(N)nc3ccccc3c2n1CCCCNS(C)(=O)=O [CPG-52852]	> 20	> 20
C[C@H](CS)C(=O)N1CCC[C@H]1C(=O)O [CAPTOPRIL]	> 20	> 20
O=c1cc(-c2ccccc2)oc2ccccc12 [FLAVONE]	> 20	> 20
CCOc1ccc(/N=N/c2ccc(N)cc2N)cc1 [ETHOXAZENE]	> 20	> 20
c1ccc(C2(N3CCCCC3)CCCCC2)cc1 [PHENCYCLIDINE]	> 20	> 20
CCN(CCNC(=O)Nc1ccccc1Br)c1cccc(C)c1	> 20	> 20
C[C@H](Cn1cnc2c(N)ncnc21)OCP(=O)(O)O [TENOFOVIR ANHYDROUS]	> 20	> 20
